In ChEMBL document CHEMBL5150029, “Conformationally Defined Rexinoids for the Prevention of Inflammation and Nonmelanoma Skin Cancers” (J Med Chem, 2022):
Active and inactive are the calls of the source. The rule behind the calls is not given here.

Experiments:
[1] = biological target: T1, Retinoic acid receptor RXR-alpha (Homo sapiens, UniProt P19793); assay: Binding affinity to human RXRalpha LBD (T225 to T462 residues) by fluorescence quenching assay
T1 sequence (P19793 whole entry): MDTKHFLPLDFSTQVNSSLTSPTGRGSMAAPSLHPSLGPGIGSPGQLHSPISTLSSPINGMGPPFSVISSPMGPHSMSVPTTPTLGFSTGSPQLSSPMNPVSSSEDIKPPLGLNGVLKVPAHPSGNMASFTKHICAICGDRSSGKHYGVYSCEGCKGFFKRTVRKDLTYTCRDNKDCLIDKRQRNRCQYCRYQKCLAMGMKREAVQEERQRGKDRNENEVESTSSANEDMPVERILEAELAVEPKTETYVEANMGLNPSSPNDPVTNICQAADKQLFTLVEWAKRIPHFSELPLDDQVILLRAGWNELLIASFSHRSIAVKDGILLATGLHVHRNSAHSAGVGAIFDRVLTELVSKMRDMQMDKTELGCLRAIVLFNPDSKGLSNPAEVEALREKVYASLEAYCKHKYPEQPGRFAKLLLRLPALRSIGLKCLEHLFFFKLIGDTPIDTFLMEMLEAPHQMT

[2] = biological target: T1, Retinoic acid receptor RXR-alpha; assay: Agonist activity at human GAL4-fused RXRalpha LBD (T225 to T462 residues) expressed in HEK293 cells incubated for 24 hrs by Dual-Glo luciferase assay; type: cell-based
[3] = biological target: T1, Retinoic acid receptor RXR-alpha; assay: Binding affinity to human RXRalpha LBD (T225 to T462 residues) assessed as binding constant by isothermal titration calorimetry
[4] = Induction of triglyceride level in Sprague-Dawley rat at 200 mg/kg in diet for 7 days (reference value: 89 +/- 10 mg/dl); type: functional; conditions: time 7 day
[5] = Induction of triglyceride level in Sprague-Dawley rat at 200 mg/kg in diet for 7 days relative to control (reference value: 0 %); type: functional; conditions: time 7 day
Epithelial cell [6] = assay: Upregulation of RBP1 gene expression in human organotypic epithelial cells at 0.2 uM incubated for 9 days with replacement of fresh compounds every other day by qPCR analysis; type: functional, cell-based; conditions: time 9.0 day
Epithelial cell [7] = assay: Upregulation of STRA6 gene expression in human organotypic epithelial cells at 0.2 uM incubated for 9 days with replacement of fresh compounds every other day by qPCR analysis; type: functional, cell-based; conditions: time 9.0 day
Epithelial cell [8] = assay: Upregulation of LRAT gene expression in human organotypic epithelial cells at 0.2 uM incubated for 9 days with replacement of fresh compounds every other day by qPCR analysis; type: functional, cell-based; conditions: time 9.0 day
Epithelial cell [9] = assay: Upregulation of RDH10 gene expression in human organotypic epithelial cells at 0.2 uM incubated for 9 days with replacement of fresh compounds every other day by qPCR analysis; type: functional, cell-based; conditions: time 9.0 day
Epithelial cell [10] = assay: Upregulation of RARB gene expression in human organotypic epithelial cells at 0.2 uM incubated for 9 days with replacement of fresh compounds every other day by qPCR analysis; type: functional, cell-based; conditions: time 9.0 day
Epithelial cell [11] = assay: Upregulation of RARG gene expression in human organotypic epithelial cells at 0.2 uM incubated for 9 days with replacement of fresh compounds every other day by qPCR analysis; type: functional, cell-based; conditions: time 9.0 day
Epithelial cell [12] = assay: Upregulation of CRABP2 gene expression in human organotypic epithelial cells at 0.2 uM incubated for 9 days with replacement of fresh compounds every other day by qPCR analysis; type: functional, cell-based; conditions: time 9.0 day
Epithelial cell [13] = assay: Downregulation of LOR gene expression in human organotypic epithelial cells at 0.2 uM incubated for 9 days with replacement of fresh compounds every other day by qPCR analysis; type: functional, cell-based; conditions: time 9.0 day
Epithelial cell [14] = assay: Downregulation of ACER1 gene expression in human organotypic epithelial cells at 0.2 uM incubated for 9 days with replacement of fresh compounds every other day by qPCR analysis; type: functional, cell-based; conditions: time 9.0 day
Epithelial cell [15] = assay: Downregulation of MCM7 gene expression in human organotypic epithelial cells at 0.2 uM incubated for 9 days with replacement of fresh compounds every other day by qPCR analysis; type: functional, cell-based; conditions: time 9.0 day
RAW264.7 [16] = assay: Antiinflammatory activity in LPS-induced mouse RAW264.7 cells assessed as reduction in IL-6 level at 10 uM after 6 hrs by RT-PCR analysis; type: functional, cell-based
RAW264.7 [17] = assay: Antiinflammatory activity in LPS-induced mouse RAW264.7 cells assessed as reduction in IL-1beta level at 10 uM after 6 hrs by RT-PCR analysis; type: functional, cell-based
RAW264.7 [18] = assay: Antiinflammatory activity in LPS-induced mouse RAW264.7 cells assessed as reduction in IL27 level at 10 uM after 6 hrs by RT-PCR analysis; type: functional, cell-based
RAW264.7 [19] = assay: Antiinflammatory activity in LPS-induced mouse RAW264.7 cells assessed as reduction in CCL5 level at 10 uM after 6 hrs by RT-PCR analysis; type: functional, cell-based
RAW264.7 [20] = assay: Antiinflammatory activity in LPS-induced mouse RAW264.7 cells assessed as reduction in Saa3 level at 10 uM after 6 hrs by RT-PCR analysis; type: functional, cell-based
RAW264.7 [21] = assay: Antiinflammatory activity in LPS-induced mouse RAW264.7 cells assessed as reduction in CCL22 level at 10 uM after 6 hrs by RT-PCR analysis; type: functional, cell-based
RAW264.7 [22] = assay: Antiinflammatory activity in LPS-induced mouse RAW264.7 cells assessed as reduction in Csf3 level at 10 uM after 6 hrs by RT-PCR analysis; type: functional, cell-based
Mus musculus [23] = assay: Prevention of UVB-induced carcinogenesis in Ptch+/- / SHK-1 mouse assessed as reduction in tumor number at 24 mg/kg measured after twice a week of UVB irradiation for 34 weeks (reference value: 8.16 +/- 1.87); type: functional
Mus musculus [24] = assay: Prevention of UVB-induced carcinogenesis in Ptch+/- / SHK-1 mouse assessed as reduction in tumor number at 24 mg/kg measured after twice a week of UVB irradiation for 34 weeks (reference value: 100 %); type: functional; design: scale not given: the % may be the effect or the level left
[25] = biological target: T2, Retinoic acid receptor RXR-alpha (Homo sapiens) (UniProt P19793); conditions: filed as agonist
T2 sequence (whole entry): T1 sequence (P19793 whole entry)
Description: Binding affinity to human RXRalpha LBD (T225 to T462 residues) assessed as change in enthalpy by isothermal titration calorimetry

[26] = biological target: T2, Retinoic acid receptor RXR-alpha (Homo sapiens); conditions: filed as agonist; remark: listed apart in the source
Description: Binding affinity to human RXRalpha LBD (T225 to T462 residues) assessed as change in entropy by isothermal titration calorimetry

[27] = biological target: T2, Retinoic acid receptor RXR-alpha (Homo sapiens); conditions: filed as agonist; remark: listed apart in the source
Description: Binding affinity to human RXRalpha LBD (T225 to T462 residues) assessed as gibbs free energy change by isothermal titration calorimetry

[28] = Induction of triglyceride level in Sprague-Dawley rat at 60 mg/kg in diet for 7 days relative to control; type: functional; conditions: time 7 day
Mus musculus [29] = assay: Prevention of UVB-induced carcinogenesis in Ptch+/- / SHK-1 mouse assessed as reduction in tumor number at 25 mg/kg measured after twice a week of UVB irradiation for 34 weeks (reference value: 8.16 +/- 1.87); type: functional
Mus musculus [30] = assay: Prevention of UVB-induced carcinogenesis in Ptch+/- / SHK-1 mouse assessed as reduction in tumor number at 25 mg/kg measured after twice a week of UVB irradiation for 34 weeks (reference value: 100 %); type: functional; design: scale not given: the % may be the effect or the level left
[31] = Induction of triglyceride level in Sprague-Dawley rat at 150 mg/kg in diet for 7 days relative to control; type: functional; conditions: time 7 day
Mus musculus [32] = assay: Prevention of UVB-induced carcinogenesis in Ptch+/- / SHK-1 mouse assessed as reduction in tumor number at 20 mg/kg measured after twice a week of UVB irradiation for 34 weeks; type: functional

Compound: CCCC1=C(CCC(C)C)/C(=C/C(C)=C\C=C\C(C)=C\C(=O)O)CCC1
- Kd [1]: 3.6 nM
- EC50 [2]: 61 nM
- Kd [3]: 2000 nM
- Activity [4]: 160 mg/dL
- Activity [5]: 80%
- Activity (Epithelial cell [6]): Active
- Activity (Epithelial cell [7]): Active
- Activity (Epithelial cell [8]): Active
- Activity (Epithelial cell [9]): Active
- Activity (Epithelial cell [10]): Active
- Activity (Epithelial cell [11]): Active
- Activity (Epithelial cell [12]): Active
- Activity (Epithelial cell [13]): Active
- Activity (Epithelial cell [14]): Active
- Activity (Epithelial cell [15]): Active
- Activity (RAW264.7 [16]): Active
- Activity (RAW264.7 [17]): Active
- Activity (RAW264.7 [18]): Active
- Activity (RAW264.7 [19]): Active
- Activity (RAW264.7 [20]): Active
- Activity (RAW264.7 [21]): Active
- Activity (RAW264.7 [22]): Active
- Activity (Mus musculus [23]): 3
- Activity (Mus musculus [24]): 63%
- deltaH [25]: -7.4 kcal/mol
- TdeltaS [26]: 0.38 kcal/mol
- deltaG [27]: -7.8 kcal/mol

Compound: CC1=C(/C=C/C(C)=C\C=C\C(C)=C\C(=O)O)C(C)(C)CCC1 [ALITRETINOIN]
- Activity [28]: 400%

Compound: CC(=C/C=C/C(C)=C/C(=O)O)/C=C1\CCCC(CCC(C)C)=C1CCC(C)C
- Activity [4]: 107 mg/dL
- Activity [5]: 20%
- Activity (Epithelial cell [6]): Active
- Activity (Epithelial cell [7]): Active
- Activity (Epithelial cell [8]): Active
- Activity (Epithelial cell [9]): Active
- Activity (Epithelial cell [10]): Active
- Activity (Epithelial cell [11]): Active
- Activity (Epithelial cell [12]): Active
- Activity (Epithelial cell [13]): Active
- Activity (Epithelial cell [14]): Active
- Activity (Epithelial cell [15]): Active
- Activity (RAW264.7 [16]): Active
- Activity (RAW264.7 [17]): Active
- Activity (RAW264.7 [18]): Active
- Activity (RAW264.7 [19]): Active
- Activity (RAW264.7 [20]): Active
- Activity (RAW264.7 [21]): Active
- Activity (RAW264.7 [22]): Active

Compound: CCCCC1=C(CCC(C)C)/C(=C/C(C)=C\C=C\C(C)=C\C(=O)O)CCC1
- Kd [1]: 4.7 nM
- EC50 [2]: 210 nM
- Kd [3]: 3100 nM
- Activity [4]: 101 mg/dL
- Activity [5]: 13%
- Activity (RAW264.7 [16]): Active
- Activity (RAW264.7 [17]): Active
- Activity (RAW264.7 [18]): Active
- Activity (RAW264.7 [19]): Active
- Activity (RAW264.7 [20]): Active
- Activity (RAW264.7 [21]): Active
- Activity (RAW264.7 [22]): Active
- Activity (Mus musculus [29]): 1.44
- Activity (Mus musculus [30]): 82%
- deltaH [25]: -6.8 kcal/mol
- TdeltaS [26]: 0.76 kcal/mol
- deltaG [27]: -7.5 kcal/mol

Compound: CCC(C)C1=C(CCC(C)C)/C(=C/C(C)=C\C=C\C(C)=C\C(=O)O)CCC1 (mixture of isomers)
- Kd [1]: 4.1 nM
- EC50 [2]: 23 nM
- Kd [3]: 3500 nM
- Activity [4]: 277 mg/dL
- Activity [5]: 211%
- deltaH [25]: -5.1 kcal/mol
- TdeltaS [26]: 2.38 kcal/mol
- deltaG [27]: -7.5 kcal/mol

Compound: C=C(c1ccc(C(=O)O)cc1)c1cc2c(cc1C)C(C)(C)CCC2(C)C [BEXAROTENE]
- Activity [31]: 350%

Compound: CC(=C/C=C/C(C)=C/C(=O)O)/C=C1\CCCc2ccccc21 [UAB-30]
- Activity (Mus musculus [32]): 5.4
